Measured values reported in PMC6564044, “Exploring E-cadherin-peptidomimetics interaction using NMR and computational studies” (PLoS Computational Biology, 2019).
Read-outs that look alike come from different tables or passages of the source. Positions of bridges follow the written chain, without caps; N, C: chain ends.

What was measured:
E-cadherin-EC1-EC2 = details: mutant EC1-EC2 lacking Asp1-Trp2 (PDB 4ZTE) or intact EC1-EC2 as stated, cited from earlier work
Text: Recently, we reported the first library of small peptidomimetic molecules targeting the strand-swapped dimer interfaces of E- and N-cadherin. These compounds are mimics of the tetrapeptide sequence Asp1-Trp2-Val3-Ile4 (DWVI) of the adhesion arm, modified by replacing the central dipeptide unit (WV) with various scaffolds, all of them bearing a benzyl group that is intended to mimic the indole moiety of Trp2.

wt E-cadherin-EC1-EC2 [1] = experiment: KD determination by STD-NMR titration (STD-AF isotherm); type: binding, human; details: STD-AF vs ligand concentration, two STD measurements per point; 283 K; protein 0.05 mM, ligand 2.0-16.0 mM
Text: STD-NMR is a consolidated technique based on Overhauser effect that is used to study the interactions between small ligands and macromolecules. The method relies on the selective irradiation of the protein, which allows magnetization to be transferred to the bound ligand (which is in great excess in solution compared to the protein concentration). The saturated ligand is displaced in solution due to the binding equilibrium and the observation of the ligand signals in the NMR spectrum provides an indication of the interaction. […] In fact, the intensity of the STD signal (expressed as absolute STD percentage) reflects the proximity of the ligand to the protein surface. […]
In order to evaluate the interaction strength between E-cadherin and compound 1, we acquired a series of STD spectra at variable ligand concentrations. The STD amplification factor (STD-AF) can be calculated by multiplying the observed STD by the molar excess of the ligand over the protein [20, 21, 25–27], so that its values depend on the fraction of bound protein. […]
Supplementary file pcbi.1007041.s004.tif: S3 Fig Variation of STD-AF versus the increase of ligand 1 concentration in presence of E-cadherin interacting protons and the intensities observed are reported in the graph. We measured the KD value of compound 1 (S3 Fig) and 2 in the presence of E-cadherin by STD (for each point we performed two STD measurements). […]

wt E-cadherin-EC1-EC2 [2] = experiment: STD-NMR epitope mapping with wt E-cadherin-EC1-EC2; type: binding, human
Text: STD-NMR is a consolidated technique based on Overhauser effect that is used to study the interactions between small ligands and macromolecules. The method relies on the selective irradiation of the protein, which allows magnetization to be transferred to the bound ligand (which is in great excess in solution compared to the protein concentration). The saturated ligand is displaced in solution due to the binding equilibrium and the observation of the ligand signals in the NMR spectrum provides an indication of the interaction. Those ligand protons that are nearest to the protein are more likely to become highly saturated, and therefore show the strongest signal in the mono-dimensional STD spectrum. Owing to the efficiency of the saturation process, the modulation of the ligand signal intensity is used as an epitope-mapping method to describe the target-ligand interactions. In fact, the intensity of the STD signal (expressed as absolute STD percentage) reflects the proximity of the ligand to the protein surface. Therefore, the group epitope mapping obtained provides information about the nature of the chemical moieties of the ligand that are crucial for molecular recognition in the binding site. We also used the STD amplification factors (STD-AF) to derive the dissociation constant (KD) of the ligand-protein complexes. Moreover, we performed tr-NOESY experiments in order to determine the preferred bound conformation of the ligands.
(§1) STD–NMR and tr-NOESY spectra were acquired in 20 mM phosphate buffer at pH 7.4 (with 150 mM NaCl and 1 mM CaCl2) and 40 μM EC1-EC2 fragments of E-cadherin. In this condition, a monomeric form is predominant in solution [28]. We performed STD-NMR experiments at 283K, 290K and 298K since lowering the temperature helps to […] the rotational correlation time of the receptor and to increase the effective magnetization transfer. […] Furthermore, we also studied the binding modes of the ligands in the presence of the truncated mutant (E-cadherin-(Val3)-EC1-EC2).
(§2) The spectra were acquired with a Bruker Avance 600 MHz instrument at 283, 290 and 298 K, in a 3 mm NMR tube and in the phosphate buffer previously described (200 μL).
(§3) The interaction between ligands and isolated proteins was detected using trNOESY, trROESY and STD experiments. In trNOESY and trROESY experiments, water suppression was achieved by use of an excitation sculpting pulse sequence. In STD experiments water suppression was achieved by using the WATERGATE 3-9-19 pulse sequence.
(§4) The on-resonance irradiation of the protein was kept at -0.05 ppm. Off-resonance irradiation of the protein was applied at 200 ppm, where no protein signals were visible. Selective presaturation of the protein was achieved by a train of Gauss shaped pulses of 49 ms length each. The total length of the saturation train was 2.94 s.
(§5) All the experiments were conducted with the first two domains (EC1-EC2) of wt E–cadherin (Molecular Weight EC1-EC2 construct = 23 KDa) and with the construct lacking the first two residues (E-cadherin-(Val3)-EC1-EC2), with a ligand-protein ratio of 80:1.
Since calcium ions are important to rigidify the EC1-EC2 linker region in the monomeric protein and considering that the use of phosphate buffer in the presence of CaCl2 may be critical, due to the limited solubility of CaHPO4, we studied the stability of the protein in phosphate buffer. We monitored the chemical shift variation in ^1H-^15N-HSQC experiment using the ^15N-labeled protein for 24 hours and we can confirm that the protein remains in the correct folding.

wt E-cadherin-EC1-EC2 [3] = experiment: tr-NOESY bound conformation; type: binding, human; details: presence of E-cadherin
Protocol: as §1, §2, §3

[4] = Free ligand NMR conformational analysis (NOESY, VT-NMR); type: physicochemical; details: for hydrogen bonding of amide/exchangeable protons: free ligand, VT experiments (compound 1); for NOESY free-state conformation: phosphate buffer, 283 K and 298 K
Protocol: NMR spectroscopy experiments were performed at 283K and 298K on Bruker Avance 400 and 600 MHz spectrometers. All proton and carbon chemical shifts were assigned unambiguously and the assignments are reported in S1–S4 Tables. The NMR experiments were carried out in an aqueous phosphate (20 mM) buffer pH = 7 with 150 mM NaCl and 1 mM CaCl2 in order to observe amide protons with 10% D2O. Two-dimensional experiments (TOCSY, NOESY, ROESY and HSQC) were carried out on samples at a concentration range of 3–6 mM. NOESY experiments were performed with a mixing time of 200 and 700 ms.
In order to obtain clear spectra, the water signal suppression was achieved by using excitation sculpting sequence from Bruker library (DPFGSE, Double Pulse Field Gradient Spin Echo).
The conformations of the peptidomimetics were analysed with respect to hydrogen bonding of amide protons (VT-NMR spectroscopy) and NOE contacts.

[5] = system: E-cadherin-(Val3)-EC1-EC2; experiment: STD-NMR epitope mapping with truncated E-cadherin; type: binding, human; details: for STD epitope with truncated E-cadherin: three temperatures, ligand-protein 80:1
Protocol: as §1, §2, §3, §4, §5

[6] = system: N-cadherin mediated processes; details: cited from earlier work
Text: Beside its broad-ranging effects on physiological tissue organization, classical cadherin dysfunction is often correlated with cancer progression and metastasis. Despite Epithelial (E)- to Neural (N-) cadherin switching being considered a molecular hallmark of epithelial to mesenchymal transition of cancer cells, carcinomas and distal metastases often retain E-cadherin expression, as observed for instance in late stage tumors in epithelial ovarian cancer (EOC). In this context, targeting the E-cadherin adhesive interface with small molecules could have a therapeutic a ...

[7] = 283, 290 and 298 K, wt E-cadherin-EC1-EC2
[8] = VT-NMR, phosphate 20 mM, pH 7, 10% D2O
[9] = 283 K, wt E-cadherin-EC1-EC2, ligand-protein 80:1
[10] = 290 K, wt E-cadherin-EC1-EC2, ligand-protein 80:1

CCC(C)C(NC(=O)CC1NC(=O)C(CNC(=O)C(N)CC(=O)O)N(Cc2ccccc2)C1=O)C(=O)NC(C)(C)C.O=C(O)C(F)(F)F (stereo not shown) [compound 1]
X-ray binding / co-crystallization (E-cadherin-EC1-EC2): binds to a dimeric conformation of E-cadherin, the so-called ‘X-dimer’ | X-ray binding / co-crystallization (E-cadherin-EC1-EC2; listed as compounds 1): attempts to co-crystallize both compounds 1 and 2 with intact E-cadherin-EC1-EC2 did not yield results | Kd (wt E-cadherin-EC1-EC2 [1]): > 20 mM | STD interaction of aromatic moiety (wt E-cadherin-EC1-EC2 [2]; [7]): interacts at all the temperatures with similar strength | STD epitope changes (NH10, NH1, Ile NH) (wt E-cadherin-EC1-EC2 [2]; 290 K, wt E-cadherin-EC1-EC2): NH10 STD signal disappears, NH1 decreases in intensity and the signal of the amidic Ile proton appears | STD epitope, NHIle (wt E-cadherin-EC1-EC2 [2]; 298 K, wt E-cadherin-EC1-EC2): NHIle signal replaces those of NH1 and NH10 | STD epitope, NH1 and NH10 (wt E-cadherin-EC1-EC2 [2]; lowest temperature (283 K), wt E-cadherin-EC1-EC2): strong interactions at the lowest temperature | STD interaction of Ile backbone NH (wt E-cadherin-EC1-EC2 [2]; temperature dependence, wt E-cadherin-EC1-EC2): seems to interact only at a higher temperature | tr-NOESY bound conformation / contacts (wt E-cadherin-EC1-EC2 [3]): in the bound form compound 1 adopts an extended conformation | Δδ/ΔT of NH10 ([4]; VT-NMR, phosphate 20 mM, pH 7, 150 mM NaCl, 1 mM CaCl2, 10% D2O): 4.67 ppb*10^3 | Δδ/ΔT of NH1 [4, 8]: 8.33 ppb*10^3 | Δδ/ΔT of NHIle [4, 8]: 7.67 ppb*10^3 | Δδ/ΔT of NHtBu [4, 8]: 7.33 ppb*10^3 | hydrogen bonding of amide/exchangeable protons [4]: NH10 is the only one that could be engaged in an inter-molecular hydrogen bond | NOESY free-state conformation [4]: equilibrium between different conformations | STD epitope with truncated E-cadherin ([5]; E-cadherin-(Val3)-EC1-EC2): only the aromatic protons are able to interact with the protein | binding affinity to truncated vs wt E-cadherin ([5]; E-cadherin-(Val3)-EC1-EC2 vs wt, 283 K): weaker binding affinity | N-terminal Asp amine signal in STD ([5]; lower amount of D2O, E-cadherin-(Val3)-EC1-EC2): the N-terminal amine of the Asp residue of the ligand can be observed

CCC(C)C(NC(=O)C1CCC2CCN(Cc3ccccc3)CC(NC(=O)C(N)CC(=O)O)C(=O)N21)C(N)=O.O=C(O)C(F)(F)F (stereo not shown) [compound 2]
X-ray binding / co-crystallization (E-cadherin-EC1-EC2): attempts to co-crystallize both compounds 1 and 2 with intact E-cadherin-EC1-EC2 did not yield results | Kd (wt E-cadherin-EC1-EC2 [1]): > 20 mM | absolute STD % of aromatic protons (wt E-cadherin-EC1-EC2 [2]; [7]): about 0.2% | absolute STD % of NH19 (wt E-cadherin-EC1-EC2 [2]; 283 K, 40 μM protein, 20 mM phosphate pH 7.4, 150 mM NaCl, 1 mM CaCl2, ligand-protein 80:1): 2.078% | absolute STD % of C-terminal amidic NH2 (wt E-cadherin-EC1-EC2 [2]; [9]): 0.2% | absolute STD % of scaffold H4/H6 (wt E-cadherin-EC1-EC2 [2]; [9]): 0.265% | STD signal of scaffold H4 and H6 (wt E-cadherin-EC1-EC2 [2]; 290 K, wt E-cadherin-EC1-EC2): not detectable | absolute STD % of C-terminal amidic NH2 (wt E-cadherin-EC1-EC2 [2]; [10]): 0.463% | absolute STD % of NH19 (wt E-cadherin-EC1-EC2 [2]; [10]): 1.441% | protons observable in STD spectrum (wt E-cadherin-EC1-EC2 [2]; 298 K, wt E-cadherin-EC1-EC2): only the aromatic protons and the amidic NH2 (0.806%) are observable in the STD spectrum | absolute STD % of C-terminal amidic NH2 (wt E-cadherin-EC1-EC2 [2]; 298 K, wt E-cadherin-EC1-EC2, ligand-protein 80:1): 0.806% | tr-NOESY bound conformation / contacts (wt E-cadherin-EC1-EC2 [3]): no long range interactions were detected | hydrogen bonding of amide/exchangeable protons [4]: the exchangeable protons are not involved in intra-molecular hydrogen bond formation | NOESY free-state conformation [4]: did not show any significant long range NOE contact typical of a preferred conformation | STD epitope with truncated E-cadherin ([5]; E-cadherin-(Val3)-EC1-EC2): the only protons that are involved in the interaction are the aromatic ones

Ac-CHAVC-NH2 (disulfide 1-5 (inferred)) [ADH-1]
reported activity [6]: anti-angiogenic agent able to cause cell apoptosis
